Experimental data published in US20230220021A1, “CYCLIC PEPTIDE INHIBITORS OF PSD-95 AND USES THEREOF” (University of Copenhagen, priority 2020, published 2023).
pKi: −log10 of the molar value. Like-named read-outs stand apart in the source and are kept apart here. Where a SMILES comes first, the peptide text is derived from it. [ ]: non-standard residue; d: D form.

Target: T1, PSD-95-PDZ2 (Homo sapiens, UniProt P78352)
T1 construct: 7xHis (N); made in house; host or cells: Escherichia coli B21 pLys (for the mutants, 'as previously described')
T1 sequence (P78352 160-246 limits assumed): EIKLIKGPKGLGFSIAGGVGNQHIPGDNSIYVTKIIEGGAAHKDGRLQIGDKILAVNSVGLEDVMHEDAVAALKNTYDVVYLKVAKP
Assay: Fluorescence polarization (FP) competition assay against cyclic nNOS TAMRA probe
Format: binding
Details: for Relative Ki (Ki mut/Ki WT): FP inhibition constant normalized to WT value; for Ki / pKi: cyclic nNOS TAMRA probe, mean of triplicates, N.B. = not binding; for pKi: read-out: Ki

Compound: CC[C@H](C)[C@@H]1NC(=O)[C@H](CC(N)=O)NC(=O)[C@H](CCCCN)NC(=O)[C@@H]2CCCN2C(=O)[C@H]([C@@H](C)O)NC(=O)CNC(=O)[C@H](CC(=O)O)NC(=O)CNC(=O)[C@H]([C@@H](C)O)NC(=O)[C@H](Cc2ccccc2)NC(=O)[C@H]([C@@H](C)O)NC(=O)[C@H]([C@@H](C)O)NC(=O)[C@H](CCC(=O)O)NC(=O)[C@H](CC(C)C)NC(=O)[C@H](Cc2c[nH]cn2)NC(=O)[C@H]([C@@H](C)O)NC(=O)[C@H](CCC(N)=O)NC(=O)CNC(=O)[C@H]2CCCN2C(=O)[C@H](CCC(N)=O)NC(=O)[C@H]([C@@H](C)O)NC(=O)[C@H](C(C)C)NC(=O)[C@H](CCCNC(=N)N)NC1=O [compound 39] (cyclo(THLETTFTGDGTPKNIRVTQ[dP]GQ))
- Relative Ki (Ki mut/Ki WT): 12.59

Compound: Cyclo-(THLETTFTGDGTPKSIRVTQpG(Qα)) (cyclo(THLETTFTGDGTPKSIRVTQ[dP]GQ); SMILES CC[C@H](C)[C@@H]1NC(=O)[C@H](CO)NC(=O)[C@H](CCCCN)NC(=O)[C@@H]2CCCN2C(=O)[C@H]([C@@H](C)O)NC(=O)CNC(=O)[C@H](CC(=O)O)NC(=O)CNC(=O)[C@H]([C@@H](C)O)NC(=O)[C@H](Cc2ccccc2)NC(=O)[C@H]([C@@H](C)O)NC(=O)[C@H]([C@@H](C)O)NC(=O)[C@H](CCC(=O)O)NC(=O)[C@H](CC(C)C)NC(=O)[C@H](Cc2c[nH]cn2)NC(=O)[C@H]([C@@H](C)O)NC(=O)[C@H](CCC(N)=O)NC(=O)CNC(=O)[C@H]2CCCN2C(=O)[C@H](CCC(N)=O)NC(=O)[C@H]([C@@H](C)O)NC(=O)[C@H](C(C)C)NC(=O)[C@H](CCCNC(=N)N)NC1=O) [SEQ ID NO: 50]
- fold lowered (decreased) binding affinity of the cyclic peptide (FP competition, relative to unsubstituted cyclic peptide): 25 fold

Compound: CC[C@H](C)[C@@H]1NC(=O)[C@H]([C@@H](C)O)NC(=O)[C@H](CCCCN)NC(=O)[C@@H]2CCCN2C(=O)[C@H](CS)NC(=O)CNC(=O)[C@H](CC(=O)O)NC(=O)CNC(=O)[C@H]([C@@H](C)O)NC(=O)[C@H](Cc2ccccc2)NC(=O)[C@H]([C@@H](C)O)NC(=O)[C@H]([C@@H](C)O)NC(=O)[C@H](CCC(=O)O)NC(=O)[C@H](CC(C)C)NC(=O)[C@H](Cc2c[nH]cn2)NC(=O)[C@H]([C@@H](C)O)NC(=O)[C@H](CCC(N)=O)NC(=O)CNC(=O)[C@H]2CCCN2C(=O)[C@H](CCC(N)=O)NC(=O)[C@H]([C@@H](C)O)NC(=O)[C@H](C(C)C)NC(=O)[C@H](CCCNC(=N)N)NC1=O [compound 38] (cyclo(THLETTFTGDGCPKTIRVTQ[dP]GQ))
- Relative Ki (Ki mut/Ki WT): 0.91

Compound: 105 (THLETXFTGDGTPKTIRVTQPGQ; cyclized peptide; (6)..(6) X is pT; (21)..(21) is D-AA) [compound 105]
- Ki (FP competition): N.B.

Compound: CC[C@H](C)[C@@H]1NC(=O)[C@H]([C@@H](C)O)NC(=O)[C@H](CCCCN)NC(=O)[C@@H]2CCCN2C(=O)[C@H]([C@@H](C)O)NC(=O)CNC(=O)[C@H](CC(=O)O)NC(=O)CNC(=O)[C@H]([C@@H](C)O)NC(=O)[C@H](Cc2ccccc2)NC(=O)[C@H]([C@@H](C)O)NC(=O)[C@H]([C@@H](C)O)NC(=O)[C@H](CCC(=O)O)NC(=O)[C@H](CC(C)C)NC(=O)[C@H](Cc2c[nH]cn2)NC(=O)[C@H]([C@@H](C)O)NC(=O)[C@H](CCC(N)=O)NC(=O)CNC(=O)[C@H]2CCCN2C(=O)[C@H](CCC(N)=O)NC(=O)[C@H]([C@@H](C)O)NC(=O)[C@H](Cc2ccccc2)NC(=O)[C@H](CCCNC(=N)N)NC1=O [compound 46] (cyclo(THLETTFTGDGTPKTIRFTQ[dP]GQ))
- Relative Ki (Ki mut/Ki WT): 0.89

Compound: CC[C@H](C)[C@@H]1NC(=O)[C@H]([C@@H](C)O)NC(=O)[C@H](CCCCN)NC(=O)[C@@H]2CCCN2C(=O)[C@H]([C@@H](C)O)NC(=O)CNC(=O)[C@H](CC(=O)O)NC(=O)CNC(=O)[C@H]([C@@H](C)O)NC(=O)[C@H](Cc2ccccc2)NC(=O)[C@H]([C@@H](C)O)NC(=O)[C@H]([C@@H](C)O)NC(=O)[C@H](CCC(=O)O)NC(=O)[C@H](CC(C)C)NC(=O)[C@H](Cc2c[nH]cn2)NC(=O)[C@H]([C@@H](C)O)NC(=O)[C@H](CCC(N)=O)NC(=O)CNC(=O)[C@H]2CCCN2C(=O)[C@H](CCC(N)=O)NC(=O)[C@H](CCCNC(=N)N)NC(=O)[C@H](C(C)C)NC(=O)[C@H](CCCNC(=N)N)NC1=O [compound 44] (cyclo(THLETTFTGDGTPKTIRVRQ[dP]GQ))
- Relative Ki (Ki mut/Ki WT): 1.06

Compound: 80 (THLEXTFTGDGTPKTIRVTQPGQ; cyclized peptide; (5)..(5) X is AlloT; (21)..(21) is D-AA) [compound 80]
- Ki (FP competition): N.B.

Compound: CC[C@H](C)[C@@H]1NC(=O)[C@H]([C@@H](C)O)NC(=O)[C@H](CCCCN)N(C)C(=O)[C@@H]2CCCN2C(=O)[C@H]([C@@H](C)O)NC(=O)CNC(=O)[C@H](CC(=O)O)NC(=O)CNC(=O)[C@H]([C@@H](C)O)NC(=O)[C@H](Cc2ccccc2)NC(=O)[C@H]([C@@H](C)O)NC(=O)[C@H]([C@@H](C)O)NC(=O)[C@H](CCC(=O)O)NC(=O)[C@H](CC(C)C)NC(=O)[C@H](Cc2c[nH]cn2)NC(=O)[C@H]([C@@H](C)O)NC(=O)[C@H](CCC(N)=O)NC(=O)CNC(=O)[C@H]2CCCN2C(=O)[C@H](CCC(N)=O)NC(=O)[C@H]([C@@H](C)O)NC(=O)[C@H](C(C)C)NC(=O)[C@H](CCCNC(=N)N)NC1=O [compound 96]
- pKi (FP competition): 6.32

Compound: CC[C@H](C)[C@@H]1NC(=O)[C@H]([C@@H](C)O)NC(=O)[C@H](CCCCN)NC(=O)[C@@H]2CCCN2C(=O)[C@H](CCC(=O)O)NC(=O)CNC(=O)[C@@H](CC(=O)O)NC(=O)CNC(=O)[C@H](Cc2c[nH]c3ccccc23)NC(=O)[C@H](Cc2ccccc2)NC(=O)[C@H]([C@@H](C)O)NC(=O)[C@H]([C@@H](C)O)NC(=O)[C@H](CCC(=O)O)NC(=O)[C@H](CC(C)C)NC(=O)[C@H](Cc2c[nH]cn2)NC(=O)[C@H]([C@@H](C)O)NC(=O)[C@H](CCC(N)=O)NC(=O)CNC(=O)[C@H]2CCCN2C(=O)[C@H](CCC(N)=O)NC(=O)[C@H]([C@@H](C)O)NC(=O)[C@H](C(C)C)NC(=O)[C@H](CCCNC(=N)N)NC1=O [compound 135] (cyclo(THLETTFWG[dD]GEPKTIRVTQ[dP]GQ))
- pKi (FP competition): 6.72

Compound: CC(C)C[C@@H]1NC(=O)[C@H](Cc2c[nH]cn2)NC(=O)[C@H]([C@@H](C)O)NC(=O)[C@H](CCC(N)=O)NC(=O)CNC(=O)[C@H]2CCCN2C(=O)[C@H](CCC(N)=O)NC(=O)[C@H]([C@@H](C)O)NC(=O)[C@H](C(C)C)NC(=O)[C@H](CCCNC(=N)N)NC(=O)[C@H](CCCNC(=N)N)NC(=O)[C@H]([C@@H](C)O)NC(=O)[C@H](CCCCN)NC(=O)[C@@H]2CCCN2C(=O)[C@H]([C@@H](C)O)NC(=O)CNC(=O)[C@H](CC(=O)O)NC(=O)CNC(=O)[C@H]([C@@H](C)O)NC(=O)[C@H](Cc2ccccc2)NC(=O)[C@H]([C@@H](C)O)NC(=O)[C@H]([C@@H](C)O)NC(=O)[C@H](CCC(=O)O)NC1=O [compound 41] (cyclo(THLETTFTGDGTPKTRRVTQ[dP]GQ))
- pKi (FP competition): 5.75
- Relative Ki (Ki mut/Ki WT): 1.17

Compound: CC[C@H](C)[C@@H]1NC(=O)[C@H]([C@@H](C)O)NC(=O)[C@H](CCCCN)NC(=O)[C@@H]2CCCN2C(=O)[C@H]([C@@H](C)O)NC(=O)CNC(=O)[C@H](CC(=O)O)NC(=O)CN(C)C(=O)[C@H]([C@@H](C)O)NC(=O)[C@H](Cc2ccccc2)NC(=O)[C@H]([C@@H](C)O)NC(=O)[C@H]([C@@H](C)O)NC(=O)[C@H](CCC(=O)O)NC(=O)[C@H](CC(C)C)NC(=O)[C@H](Cc2c[nH]cn2)NC(=O)[C@H]([C@@H](C)O)NC(=O)[C@H](CCC(N)=O)NC(=O)CNC(=O)[C@H]2CCCN2C(=O)[C@H](CCC(N)=O)NC(=O)[C@H]([C@@H](C)O)NC(=O)[C@H](C(C)C)NC(=O)[C@H](CCCNC(=N)N)NC1=O [compound 92]
- pKi (FP competition): 5.21

Compound: CC[C@H](C)[C@@H]1NC(=O)[C@H]([C@@H](C)O)NC(=O)[C@H](CCCCN)NC(=O)[C@@H]2CCCN2C(=O)[C@H]([C@@H](C)O)NC(=O)CNC(=O)[C@H](CC(=O)O)NC(=O)CNC(=O)[C@H]([C@@H](C)O)NC(=O)[C@H](Cc2ccccc2)NC(=O)[C@H]([C@@H](C)O)NC(=O)[C@H]([C@@H](C)O)NC(=O)[C@H](CCC(=O)O)NC(=O)[C@H](CC(C)C)NC(=O)[C@@H](Cc2c[nH]cn2)NC(=O)[C@H]([C@@H](C)O)NC(=O)[C@H](CCC(N)=O)NC(=O)CNC(=O)[C@H]2CCCN2C(=O)[C@H](CCC(N)=O)NC(=O)[C@H]([C@@H](C)O)NC(=O)[C@H](C(C)C)NC(=O)[C@H](CCCNC(=N)N)NC1=O [compound 113]
- pKi (FP competition): 4.88

Compound: CC(C)C[C@@H]1NC(=O)[C@H](Cc2c[nH]cn2)NC(=O)[C@H]([C@@H](C)O)NC(=O)[C@H](CCC(N)=O)NC(=O)CNC(=O)[C@H]2CCCN2C(=O)[C@H](CCC(N)=O)NC(=O)[C@H]([C@@H](C)O)NC(=O)[C@H](C(C)C)NC(=O)[C@H](CCCNC(=N)N)NC(=O)[C@H](Cc2ccc(O)cc2)NC(=O)[C@H]([C@@H](C)O)NC(=O)[C@H](CCCCN)NC(=O)[C@@H]2CCCN2C(=O)[C@H]([C@@H](C)O)NC(=O)CNC(=O)[C@H](CC(=O)O)NC(=O)CNC(=O)[C@H]([C@@H](C)O)NC(=O)[C@H](Cc2ccccc2)NC(=O)[C@H]([C@@H](C)O)NC(=O)[C@H]([C@@H](C)O)NC(=O)[C@H](CCC(=O)O)NC1=O [compound 42] (cyclo(THLETTFTGDGTPKTYRVTQ[dP]GQ))
- Relative Ki (Ki mut/Ki WT): 1.07

Compound: CC[C@H](C)[C@@H]1NC(=O)[C@H]([C@@H](C)O)NC(=O)[C@H](CCCCN)NC(=O)[C@@H]2CCCN2C(=O)[C@H]([C@@H](C)O)NC(=O)CNC(=O)[C@H](CC(=O)O)NC(=O)CNC(=O)[C@H]([C@@H](C)O)NC(=O)[C@H](Cc2ccccc2)NC(=O)[C@H](CCC(=O)O)NC(=O)[C@H]([C@@H](C)O)NC(=O)[C@H](CCC(=O)O)NC(=O)[C@H](CC(C)C)NC(=O)[C@H](Cc2c[nH]cn2)NC(=O)[C@H]([C@@H](C)O)NC(=O)[C@H](CCC(N)=O)NC(=O)CNC(=O)[C@H]2CCCN2C(=O)[C@H](CCC(N)=O)NC(=O)[C@H]([C@@H](C)O)NC(=O)[C@H](C(C)C)NC(=O)[C@H](CCCNC(=N)N)NC1=O [compound 53] (cyclo(THLETEFTGDGTPKTIRVTQ[dP]GQ))
- pKi (FP competition): 4.94
- Relative Ki (Ki mut/Ki WT): 0.34
